We go through 17 compounds from US20220002279A1, “NOVEL IMIDAZOLE DERIVATIVE” (priority 2018, published 2022).

Converted amounts (≈) assume the structure as drawn. Where two headings read alike, the source gives them in different places.

Assay [1] deals with Pseudomonas aeruginosa strain ATCC27853. Nature of the assay: Antimicrobial activity, MIC by broth microdilution. It counts as cell-based. As to conditions: ATCC27853, 18 h, cation-adjusted Mueller-Hinton broth, about 5×10^5 CFU/mL, 35° C., about 18 hours, read-out: MIC Pseudomonas aeruginosa ATCC27853. From the text:
(§1) Test Example 4 Evaluation of the Antimicrobial Activity
(§2) For minimum inhibitory concentration (MIC) measurement, the following broth microdilution method was applied as adapted from the standard procedure recommended by the CLSI (Clinical and Laboratory Standards Institute).
(§3) The bacteria used were Pseudomonas aeruginosa strain ATCC27853, Escherichia coli strain ATCC25922, and Klebsiella pneumoniae strain ATCC13883. After culture overnight on a heart infusion agar medium, the cells of a test bacterium were scraped off, and a bacterial solution suspended to have a turbidity of level 0.5 on the McFarland scale was diluted and used as an inoculum solution. The inoculum solution was inoculated in a cation-adjusted Mueller-Hinton broth medium containing a test compound so that the final inoculation concentration was about 5×10^5 CFU/mL, and cultured at 35° C. for about 18 hours. A minimum drug concentration at which no cell growth was visible to the naked eye was designated as MIC. […] In the table, ND represents the case where suppression of the cell growth in a drug concentration-dependent manner was not observed (Not Determined), and NT represents that no test was conducted (Not Tested).
For orientation: Broth dilution looks for growth in wells or tubes with falling amounts of substance.

Assay [2] concerns Klebsiella pneumoniae strain ATCC13883. The assay is described as follows: Antimicrobial activity, MIC by broth microdilution. It counts as cell-based. As to conditions: ATCC13883, cation-adjusted Mueller-Hinton broth, about 5×10^5 CFU/mL, 35° C., about 18 hours, read-out: MIC Klebsiella pneumoniae ATCC13883.
Text: as §1, §2, §3

Assay [3] has as its system Escherichia coli strain ATCC25922. Nature of the assay: Antimicrobial activity, MIC by broth microdilution. The format is cell-based. To be noted: ATCC25922, 18 h, cation-adjusted Mueller-Hinton broth, about 5×10^5 CFU/mL, 35° C., about 18 hours, read-out: MIC Escherichia coli ATCC25922.
Text: as §1, §2, §3

Assay [4] addresses T1, Escherichia coli LpxC enzyme (Escherichia coli, UniProt P0A725).
T1 construct: made in house; host or cells: Escherichia coli
T1 sequence (P0A725 1-305): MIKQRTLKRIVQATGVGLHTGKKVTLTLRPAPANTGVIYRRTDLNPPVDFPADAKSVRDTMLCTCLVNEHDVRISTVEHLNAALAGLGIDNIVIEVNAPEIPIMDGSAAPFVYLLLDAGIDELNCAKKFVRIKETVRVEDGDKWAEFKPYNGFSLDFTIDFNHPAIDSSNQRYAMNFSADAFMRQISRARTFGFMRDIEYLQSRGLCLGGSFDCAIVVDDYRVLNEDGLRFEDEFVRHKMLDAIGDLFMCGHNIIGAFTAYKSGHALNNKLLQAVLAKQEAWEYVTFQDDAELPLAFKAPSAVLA
Nature of the assay: Inhibitory activity on Escherichia coli LpxC enzyme (fluorescamine method). It counts as biochemical. Here is the method:
To assay the activity of Escherichia coli LpxC enzyme, LpxC was reacted with its substrate, UDP-3-O-(R-3-hydroxymyristoyl)-N-acetylglucosamine, and the amount of the reaction product was quantified by the amino groups present in the product
The reaction was terminated by the addition of 1.0 mg/mL-fluorescamine dissolved in a solvent obtained by mixing an equal amount of acetonitrile and dimethylformamide with the reaction mixture, and then, a 0.2 mol/L-sodium phosphate buffer solution (pH 8.0) was added thereto, and the amount of the reaction product was detected at an excitation wavelength/fluorescence wavelength=390 nm/495 nm. An inhibition curve was obtained by performing the aforementioned reaction in the presence of various concentrations of test compounds.

[5] abbreviates: fluorescamine detection, 3.1 nmol/L enzyme, 20 μmol/L substrate, pH 6.5, 120 min, read-out: IC50 (inhibitory activity on Escherichia coli LpxC enzyme, Fluoresamine method).

Turning to `COCC1CC1C#Cc1ccc(-c2cc([C@@H](CN)n3ccnc3[C@H](C)O)no2)cc1` (relative stereo) [Compound 74, (1S)-1-(1-{(1R)-2-amino-1-[5-(4-{[trans-2-(methoxymethyl)cyclopropyl]ethynyl}phenyl)-1,2-oxazol-3-yl]ethyl}-1H-imidazol-2-yl)ethan-1-ol], the minimum inhibitory concentration (MIC) came out at 16 µg/mL (≈ 39.4 µM) in assay [1], 0.25 µg/mL (≈ 0.615 µM) in assay [2] and 0.12 µg/mL (≈ 0.295 µM) in assay [3]. Further, the concentration for half-maximal inhibition (IC50) in assay [4] (setting [5]) is 39.6 nM.

`C[C@H](O)c1nccn1[C@H](CN)c1cc(-c2ccc(C#CC3CC3CO)cc2)on1` (relative stereo) [Compound 80, (1S)-1-(1-((1R)-2-amino-1-[5-(4-{[trans-2-(hydroxymethyl)cyclopropyl]ethynyl}phenyl)-1,2-oxazol-3-yl]ethyl}-1H-imidazol-2-yl)ethan-1-ol]: the MIC in assay [1] turned out to be 4 µg/mL (≈ 10.2 µM); in assay [2] it was 1 µg/mL (≈ 2.55 µM); in assay [3] it was 0.25 µg/mL (≈ 0.637 µM). In assay [4] (setting [5]), the IC50 worked out at 80.7 nM.

Regarding `COCC1CC1C#Cc1ccc(-c2cc(Cn3ccnc3[C@H](C)O)no2)cc1` (stereo in doubt) [Compound 66, (1S)-1-(1-{[5-(4-{[trans-2-(Methoxymethyl)cyclopropyl]ethynyl}phenyl)-1,2-oxazol-3-yl]methyl}-1H-imidazol-2-yl)ethan-1-ol], the MIC in assay [1] was determined as 32 µg/mL (≈ 84.8 µM); in assay [2], 0.12 µg/mL (≈ 0.318 µM); in assay [3] it was 0.12 µg/mL (≈ 0.318 µM). Moreover, the half-inhibitory concentration (IC50) in assay [4] is less than 10 nM.

Regarding `C[C@H](O)c1nccn1Cc1cc(-c2ccc(C#CC3CC3)cc2)on1` [Compound 26, (1S)-1-[1-({5-[4-(Cyclopropylethynyl)phenyl]-1,2-oxazol-3-yl}methyl)-1H-imidazol-2-yl]ethan-1-ol], the minimum inhibitory concentration (MIC) in assay [1] is more than 8 µg/mL; in assay [2], 0.25 µg/mL (≈ 0.75 µM); in assay [3], 0.25 µg/mL (≈ 0.75 µM). For the same compound, the half-maximal inhibitory concentration (IC50) in assay [4] is less than 10 nM.

`C[C@H](O)c1nccn1Cc1cc(-c2ccc(C#CC3CCOCC3)cc2)on1` [Compound 31, (1S)-1-{1-[(5-{4-[(oxan-4-yl)ethynyl]phenyl}-1,2-oxazol-3-yl)methyl]-1H-imidazol-2-yl) ethan-1-ol]: the MIC in assay [1] is more than 128 µg/mL; in assay [2] it was 2 µg/mL (≈ 5.3 µM); in assay [3], 1 µg/mL (≈ 2.65 µM). Moreover, in assay [4] (setting [5]), the IC50 is 32.8 nM.

For `C[C@H](O)c1nccn1Cc1cc(-c2ccc(C#CC(C)(C)O)cc2)on1` [Compound 32, 4-(4-[3-({2-[(1S)-1-hydroxyethyl]-1H-imidazol-1-yl}methyl)-1,2-oxazol-5-yl]phenyl}-2-methylbut-3-yn-2-ol], the MIC was more than 128 µg/mL in assay [1], 16 µg/mL (≈ 45.5 µM) in assay [2] and 8 µg/mL (≈ 22.8 µM) in assay [3]. Moreover, in assay [4] (setting [5]), the IC50 amounted to 335 nM.

In the case of `COCCN1C[C@@H]2[C@@H](C#Cc3ccc(-c4cc(Cn5ccnc5[C@H](C)O)no4)cc3)[C@@H]2C1` [Compound 34, (1S)-1-(1-{[5-(4-{[(1R,5S,6s)-3-(2-methoxyethyl)-3-azabicyclo[3.1.0]hexan-6-yl]ethynyl}phenyl)-1,2-oxazol-3-yl]methyl}-1H-imidazol-2-yl)ethan-1-ol], the figures for the minimal inhibitory concentration (MIC) in assay [1], in assay [2] and in assay [3] were 8 µg/mL (≈ 18.5 µM), 0.5 µg/mL (≈ 1.16 µM) and 0.25 µg/mL (≈ 0.578 µM), respectively. For the same compound, the IC50 in assay [4] (setting [5]) was 108 nM.

As to `C[C@H](O)c1nccn1Cc1cc(-c2ccc(C#CC3(C)CN(C)C3)cc2)on1` [Compound 35, (1S)-1-{1-[(5-{4-[(1,3-dimethylazetidin-3-yl)ethynyl]phenyl}-1,2-oxazol-3-yl)methyl]-1H-imidazol-2-yl}ethan-1-ol], the MIC in assay [1] was more than 128 µg/mL; in assay [2] it was 16 µg/mL (≈ 42.5 µM); in assay [3] it was 4 µg/mL (≈ 10.6 µM). Besides, the concentration for half-maximal inhibition (IC50) in assay [4] (setting [5]) was found to be 815 nM.

On to `C[C@H](O)c1nccn1Cc1cc(-c2ccc(C#C[C@@H]3[C@H]4CN(C)C[C@@H]34)cc2)on1` [Compound 36, (1S)-1-(1-{[5-(4-{[(1R,5S,6s)-3-methyl-3-azabicyclo[3.1.0]hexan-6-yl]ethynyl}phenyl)-1,2-oxazol-3-yl]methyl}-1H-imidazol-2-yl)ethan-1-ol], for which the MIC in assay [1] is 16 µg/mL (≈ 41.2 µM); in assay [2], 1 µg/mL (≈ 2.57 µM); in assay [3] it was 0.5 µg/mL (≈ 1.29 µM). For the same compound, the IC50 in assay [4] (setting [5]) stood at 98.7 nM.

With `CC(=O)N1C[C@@H]2[C@@H](C#Cc3ccc(-c4cc(Cn5ccnc5[C@H](C)O)no4)cc3)[C@@H]2C1` [Compound 37, 1-[(1R,5S,6s)-6-({4-[3-({2-[(1S)-1-Hydroxyethyl]-1H-imidazol-1-yl}methyl)-1,2-oxazol-5-yl]phenyl}ethynyl)-3-azabicyclo[3.1.0]hexan-3-yl]ethan-1-one], the MIC in assay [1] amounted to 32 µg/mL (≈ 76.8 µM); in assay [2] it was 2 µg/mL (≈ 4.8 µM); in assay [3] it was 1 µg/mL (≈ 2.4 µM). Besides, the half-maximal inhibitory concentration (IC50) in assay [4] (setting [5]) was determined as 58.2 nM.

Take `C[C@H](O)c1nccn1[C@H](CN(C)C)c1cc(-c2ccc(C#C[C@@H]3[C@H]4CN(CCO)C[C@@H]34)cc2)on1` [Compound 39, (1S)-1-(1-{(1R)-2-(Dimethylamino)-1-[5-(4-{[(1R,5S,6s)-3-(2-hydroxyethyl)-3-azabicyclo[3.1.0]hexan-6-yl]ethynyl}phenyl)-1,2-oxazol-3-yl]ethyl}-1H-imidazol-2-yl)ethan-1-ol]: the MIC amounted to 8 µg/mL (≈ 16.8 µM) in assay [1], 4 µg/mL (≈ 8.41 µM) in assay [2] and 2 µg/mL (≈ 4.21 µM) in assay [3]. Besides, the IC50 in assay [4] (setting [5]) was determined as 1820 nM.

On to `COCCN1CC(C)(C#Cc2ccc(-c3cc(Cn4ccnc4[C@H](C)O)no3)cc2)C1` [Compound 41, (1S)-1-(1-{[5-(4-{[l-(2-methoxyethyl)-3-methylazetidin-3-yl]ethynyl}phenyl)-1,2-oxazol-3-yl]methyl}-1H-imidazol-2-yl)ethan-1-ol], for which the MIC in assay [1] was more than 128 µg/mL; in assay [2] it was 4 µg/mL (≈ 9.51 µM); in assay [3] it was 2 µg/mL (≈ 4.76 µM). Moreover, in assay [4] (setting [5]), the IC50 amounted to 231 nM.

Regarding `C[C@H](O)c1nccn1Cc1cc(-c2ccc(C#C[C@@H]3[C@H]4CN(CC5COC5)C[C@@H]34)cc2)on1` [Compound 42, (1S)-1-[1-({5-[4-({(1R,5S,6s)-3-[(Oxetan-3-yl)methyl]-3-azabicyclo[3.1.0]hexan-6-yl}ethynyl)phenyl]-1,2-oxazol-3-yl}methyl)-1H-imidazol-2-yl]ethan-1-ol], the MIC was found to be 16 µg/mL (≈ 36 µM) in assay [1], 0.5 µg/mL (≈ 1.12 µM) in assay [2] and 0.25 µg/mL (≈ 0.562 µM) in assay [3]. Further, in assay [4] (setting [5]), the half-maximal inhibitory concentration (IC50) was found to be 46.8 nM.

Regarding `C[C@H](O)c1nccn1Cc1cc(-c2ccc(C#CC(C)(C)C)cc2)on1` [Compound 43, (1S)-1-[1-({5-[4-(3,3-dimethylbut-1-yn-1-yl)phenyl]-1,2-oxazol-3-yl}methyl)-1H-imidazol-2-yl]ethan-1-ol], the minimal inhibitory concentration (MIC) in assay [1] is more than 32 µg/mL; in assay [2], 2 µg/mL (≈ 5.72 µM); in assay [3], 1 µg/mL (≈ 2.86 µM). Besides, the IC50 in assay [4] (setting [5]) was determined as 47.1 nM.

As to `C[C@H](O)c1nccn1Cc1cc(-c2ccc(C#C[C@@H]3[C@H]4CN(CC(=O)O)C[C@@H]34)cc2)on1` [Compound 110, [(1R,5S,6s)-6-({4-[3-((2-[(1S)-1-hydroxyethyl]-1H-imidazol-1-yl}methyl)-1,2-oxazol-5-yl]phenyl}ethynyl)-3-azabicyclo[3.1.0]hexan-3-yl]acetic acid], the IC50 in assay [4] (setting [5]) came to 219 nM.

On to `C[C@H](O)c1nccn1Cc1cc(-c2ccc(C#C[C@@H]3[C@H]4CN(CCC(=O)O)C[C@@H]34)cc2)on1` [Compound 114, 3-[(1R,5S,6s)-6-({4-[3-({2-[(1S)-1-hydroxyethyl]-1H-imidazol-1-yl}methyl)-1,2-oxazol-5-yl]phenyl}ethynyl)-3-azabicyclo[3.1.0]hexan-3-yl]propanoic acid], for which the MIC in assay [1] and in assay [2] was 4 µg/mL (≈ 8.96 µM) in each case. Further, the IC50 in assay [4] (setting [5]) came to 291 nM.

Regarding `C[C@H](O)CN1C[C@@H]2[C@@H](C#Cc3ccc(-c4cc([C@@H](CN)n5ccnc5[C@H](C)O)no4)cc3)[C@@H]2C1` [Compound 136, (S)-1-((1R,5S,6R)-6-((4-(3-((R)-2-amino-1-(2-((S)-1-hydroxyethyl)-1H-imidazol-1-yl)ethyl)isoxazol-5-yl)phenyl)ethynyl)-3-azabicyclo[3.1.0]hexan-3-yl)propan-2-ol], the minimal inhibitory concentration (MIC) came to 2 µg/mL (≈ 4.33 µM) in assay [1], 4 µg/mL (≈ 8.67 µM) in assay [2] and 1 µg/mL (≈ 2.17 µM) in assay [3].

By MIC is commonly meant the least concentration at which growth counts as inhibited. By IC50 is commonly meant the midpoint of a concentration-inhibition curve.
